Results on 15 compounds are retold here after patent US20210300924A1, “5-[6-[[3-(4,5,6,7-TETRAHYDROPYRAZOLO[4,3-C]PYRIDIN-1-YL)AZETIDIN-1-YL]METHYL]MORPHOLIN-4-YL]QUINOLINE-8-CARBONITRILE DERIVATIVES AND SIMILAR COMPOUNDS AS TLR7-9 ANTAGONISTS FOR TREATING SYSTEMIC LUPUS ERYTHEMATOSUS” (Hoffmann-La Roche Inc., priority 2018, published 2021).

Each structure is given as a SMILES string.

This experiment addresses T1, human TLR8 (Homo sapiens, UniProt Q9NR97).
T1 construct: host or cells: HEK293 (HEK-Blue hTLR8)
T1 sequence (Q9NR97 27-1041): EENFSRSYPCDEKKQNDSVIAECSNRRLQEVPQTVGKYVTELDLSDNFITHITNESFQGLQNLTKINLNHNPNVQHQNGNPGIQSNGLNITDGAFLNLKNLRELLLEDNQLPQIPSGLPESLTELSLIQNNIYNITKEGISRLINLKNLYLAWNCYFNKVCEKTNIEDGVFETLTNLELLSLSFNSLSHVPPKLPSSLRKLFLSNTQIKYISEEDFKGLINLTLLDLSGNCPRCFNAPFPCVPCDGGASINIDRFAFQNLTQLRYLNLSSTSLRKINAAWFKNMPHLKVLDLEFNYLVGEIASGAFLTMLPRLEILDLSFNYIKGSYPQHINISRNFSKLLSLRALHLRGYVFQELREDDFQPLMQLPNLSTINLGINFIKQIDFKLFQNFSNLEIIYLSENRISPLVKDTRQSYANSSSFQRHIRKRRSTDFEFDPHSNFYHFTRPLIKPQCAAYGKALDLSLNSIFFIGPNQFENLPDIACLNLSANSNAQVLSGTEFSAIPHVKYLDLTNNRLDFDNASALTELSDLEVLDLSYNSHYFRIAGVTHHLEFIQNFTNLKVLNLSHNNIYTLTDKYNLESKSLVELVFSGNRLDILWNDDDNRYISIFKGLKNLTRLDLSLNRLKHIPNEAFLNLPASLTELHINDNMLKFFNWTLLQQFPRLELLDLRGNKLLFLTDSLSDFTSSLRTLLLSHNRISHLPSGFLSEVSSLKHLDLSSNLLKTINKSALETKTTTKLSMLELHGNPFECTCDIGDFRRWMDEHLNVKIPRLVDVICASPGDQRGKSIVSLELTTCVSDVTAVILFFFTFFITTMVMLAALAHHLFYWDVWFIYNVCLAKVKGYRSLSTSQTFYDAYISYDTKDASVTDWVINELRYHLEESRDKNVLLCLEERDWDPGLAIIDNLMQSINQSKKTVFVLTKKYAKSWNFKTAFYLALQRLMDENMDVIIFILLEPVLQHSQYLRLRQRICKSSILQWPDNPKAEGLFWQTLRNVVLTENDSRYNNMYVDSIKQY
The experiment can be described thus: HEK293-Blue-hTLR-8 cells assay. It is filed as cell-based. As to conditions: HEK293-Blue-hTLR8 cells, R848 stimulation, 20 hrs, SEAP reporter; read-out: HEK/hTLR8 IC50. The source says: A stable HEK293-Blue-hTLR-8 cell line was purchased from InvivoGen (Cat. #: hkb-htlr8, San Diego, Calif., USA). These cells were originally designed for studying the stimulation of human TLR8 by monitoring the activation of NF-κB. A SEAP (secreted embryonic alkaline phosphatase) reporter gene was placed under the control of the IFN-β minimal promoter fused to five NF-κB and AP-1-binding sites. The SEAP was induced by activating NF-κB and AP-1 via stimulating HEK-Blue hTLR8 cells with TLR8 ligands. Therefore the reporter expression was declined by TLR8 antagonist under the stimulation of a ligand, such as R848, for incubation of 20 hrs. The cell culture supernatant SEAP reporter activity was determined using QUANTI-Blue™ kit (Cat. #: rep-qb1, Invivogen, San Diego, Ca, USA) at a wavelength of 640 nm, a detection medium that turns purple or blue in the presence of alkaline phosphatase.
HEK293-Blue-hTLR8 cells were incubated at a density of 250,000-450,000 cells/mL in a volume of 170 μL in a 96-well plate in Dulbecco's Modified Eagle's medium (DMEM) containing 4.5 g/L glucose, 50 U/mL penicillin, […], […], 2 mM L-glutamine, 10% (v/v) heat-inactivated fetal bovine serum with addition of 20 μL test compound in a serial dilution in the presence of final DMSO at 1% and 10 μL of 60 uM R848 in above DMEM, perform incubation under 37° C. in a CO2 incubator for 20 hrs. Then 20 μL of the supernatant from each well was incubated with […] Quanti-blue substrate solution at 37° C. for 2 hrs and the absorbance was read at 620-655 nm using a spectrophotometer. The signaling pathway that TLR8 activation leads to downstream NF-κB activation has been widely accepted, and therefore similar reporter assay was modified for evaluating TLR8 antagonist.
`C[C@@H]1CN(c2ccc(C#N)c3ncccc23)C[C@H](CN2CC(n3cc4c(n3)[C@H](C)NCC4)C2)O1` (single isomer, unassigned) [Example 34]: the IC50 came out at 0.016 µM.
Under `C[C@@H]1CN(c2ccc(C#N)c3ncccc23)C[C@H](CN2CC(n3cc4c(n3)CCNC4)C2)O1` [Example 2, 5-[(2R,6S)-2-methyl-6-[[3-(4,5,6,7-tetrahydropyrazolo[4,3-c]pyridin-2-yl)azetidin-1-yl]methyl]morpholin-4-yl]quinoline-8-carbonitrile] stands 0.019 µM; under `CCN1CCc2cn(C3CN(C[C@H]4CN(c5ccc(C#N)c6ncccc56)C[C@@H](C)O4)C3)nc2C1` [Example 7, 5-[(2S,6R)-2-[[3-(6-ethyl-5,7-dihydro-4H-pyrazolo[3,4-c]pyridin-2-yl)azetidin-1-yl]methyl]-6-methyl-morpholin-4-yl]quinoline-8-carbonitrile], 0.005 µM.
Under `C[C@@H]1Cc2c(cnn2C2CN(C[C@H]3CN(c4ccc(C#N)c5ncccc45)C[C@@H](C)O3)C2)CN1` [Example 16, 5-[(2R,6S)-2-methyl-6-[[3-[(6R)-6-methyl-4,5,6,7-tetrahydropyrazolo[4,3-c]pyridin-1-yl]azetidin-1-yl]methyl]morpholin-4-yl]quinoline-8-carbonitrile] stands 0.016 µM; under `Cc1c2c(nn1C1CN(C[C@H]3CN(c4ccc(C#N)c5ncccc45)C[C@@H](C)O3)C1)CCN(C)C2` [Example 15, 5-[(2S,6R)-2-[[3-(3,5-dimethyl-6,7-dihydro-4H-pyrazolo[4,3-c]pyridin-2-yl)azetidin-1-yl]methyl]-6-methyl-morpholin-4-yl]quinoline-8-carbonitrile], 0.009 µM.
`C[C@@H]1CN(c2ccc(C#N)c3ncccc23)C[C@H](CN2CC(n3ncc4c3CNCC4)C2)O1` [Example 3, 5-[(2R,6S)-2-methyl-6-[[3-(4,5,6,7-tetrahydropyrazolo[3,4-c]pyridin-1-yl)azetidin-1-yl]methyl]morpholin-4-yl]quinoline-8-carbonitrile]: the IC50 amounted to 0.006 µM.
Then `Cc1nn(C2CN(C[C@H]3CN(c4ccc(C#N)c5ncccc45)C[C@@H](C)O3)C2)c2c1CCNC2` [Example 42, 5-[(2R,6S)-2-methyl-6-[[3-(3-methyl-4,5,6,7-tetrahydropyrazolo[3,4-c]pyridin-1-yl)azetidin-1-yl]methyl]morpholin-4-yl]quinoline-8-carbonitrile], with 0.018 µM; and `C[C@@H]1CN(c2ccc(C#N)c3ncccc23)C[C@H](CN2CC(n3ncc4c3C[C@H](C)NC4)C2)O1` [Example 18, 5-[(2R,6S)-2-methyl-6-[[3-[(6S)-6-methyl-4,5,6,7-tetrahydropyrazolo[4,3-c]pyridin-1-yl]azetidin-1-yl]methyl]morpholin-4-yl]quinoline-8-carbonitrile], with 0.019 µM; and `C[C@@H]1Cc2cn(C3CN(C[C@H]4CN(c5ccc(C#N)c6ncccc56)C[C@@H](C)O4)C3)nc2CN1` (single isomer, unassigned) [Example 30], with 0.014 µM.
Under `C[C@@H]1CN(c2ccc(C#N)c3ncccc23)C[C@H](CN2CC(n3ncc4c3CCNC4)C2)O1` [Example 1, 5-[(2R,6S)-2-methyl-6-[[3-(4,5,6,7-tetrahydropyrazolo[4,3-c]pyridin-1-yl)azetidin-1-yl]methyl]morpholin-4-yl]quinoline-8-carbonitrile] stands 0.017 µM.
Under `C[C@@H]1CN(c2ccc(C#N)c3ncccc23)C[C@H](CN2CC(n3cc4c(n3)C(C)(C)CNC4)C2)O1` [Example 24, 5-[(2S,6R)-2-[[3-(7,7-dimethyl-5,6-dihydro-4H-pyrazolo[4,3-c]pyridin-2-yl)azetidin-1-yl]methyl]-6-methyl-morpholin-4-yl]quinoline-8-carbonitrile] stands 0.014 µM.
Turning to `CC(C)N1CCc2cnn(C3CN(C[C@H]4CN(c5ccc(C#N)c6ncccc56)C[C@@H](C)O4)C3)c2C1` [Example 8, 5-[(2S,6R)-2-[[3-(6-isopropyl-5,7-dihydro-4H-pyrazolo[3,4-c]pyridin-1-yl)azetidin-1-yl]methyl]-6-methyl-morpholin-4-yl]quinoline-8-carbonitrile], the IC50 was determined as 0.005 µM.
Under `C[C@@H]1CN(c2ccc(C#N)c3ncccc23)C[C@H](CN2CC(n3cc4c(n3)CNC4)C2)O1` [Example 11, 5-[(2S,6R)-2-[[3-(5,6-dihydro-4H-pyrrolo[3,4-c]pyrazol-2-yl)azetidin-1-yl]methyl]-6-methyl-morpholin-4-yl]quinoline-8-carbonitrile] stands 0.019 µM; under `C[C@@H]1CN(c2ccc(C#N)c3ncccc23)C[C@H](CN2CC(n3ncc4c3CNC4)C2)O1` [Example 10, 5-[(2S,6R)-2-[[3-(5,6-dihydro-4H-pyrrolo[3,4-c]pyrazol-1-yl)azetidin-1-yl]methyl]-6-methyl-morpholin-4-yl]quinoline-8-carbonitrile], 0.019 µM.
Then `C[C@@H]1CN(c2ccc(C#N)c3ncccc23)C[C@H](CN2CCC(n3cc4c(n3)CCNC4)CC2)O1` [Example 36, 5-[(2R,6S)-2-methyl-6-[[4-(4,5,6,7-tetrahydropyrazolo[4,3-c]pyridin-2-yl)-1-piperidyl]methyl]morpholin-4-yl]quinoline-8-carbonitrile], with 0.04 µM.
